According to patent US20080199546A1, “Anti-resorptive and bone building dietary supplements and methods of use” (priority 2006, published 2008):

Assays:
[1] = test system: BMP-2 promoter; test: BMP2 promoter assay (luciferase reporter); assay type: cell-based, murine; settings: summary of Table 1
[2] = test system: RANK-L; test: Production/release of RANK-L protein (ELISA, IL-1b stimulated MG-63 cells); assay type: cell-based; settings: Homo sapiens, MG-63, 1 μg/ml
Method: Weigh between 150 to 250 mg of each ingredient into a 15 ml conial bottomed tube. […] For solvent control, mix 1.5 ml DMSO, 0.9 ml ethanol, and 0.6 ml water. Vortex thoroughly. Sonicate for 10 minute in water bath, room temperature. Vortex thoroughly again. Dilute ingredient stocks in fresh phenol red-free media. Human osteosarcoma cell line, MG-63 (ATCC# CRL-1427), is maintained in phenol-red containing MEM (as recommended by ATCC) at 37° C. and 5% CO2. Twenty-four hours prior to experimentation, 3×10^5 cells are seeded in 12-well plates in phenol-red free MEM. Spent medium is removed from wells and MG-63 cells (ATCC # CRL-1427) are pretreated with 1, 0.1, 0.01 μg/ml of each test ingredient or 30 ng/ml TGF-beta (+ control) for 4 hours at 37° C., 5% CO2. Stock solution of TGF-beta is 30 μg/ml (from R&D Systems, cat# 100-B-001). After pretreatment incubation period, […] IL-1b (Calbiochem (catalog # 407615), and stock solution at 10 μg/ml, cat # 407615) were added to the cell cultures for 18 hours at 37° C. Supernatant media from the treated and stimulated cells were removed and total RANK-L proteins measured using RANK-L ELISA (in triplicate) as described by manufacturer (from APOTECH, catalog # APO-54N-016-k101). The resulting protein quantity was compared to that of media (null) treated stimulated cells to determine percent decrease in total RANK-L protein.

[3] = test system: RANK-L gene expression; test: RANK-L gene expression (qPCR, IL-1b stimulated MG63 cells); assay type: cell-based, human; settings: IL1B 3 ng/ml alone (stimulus)
Method: Punicalagin test samples are extracted from pomegranates, including from pomegranate peels, skins, fleshy fruit, and seeds using 100% DMSO at 100 mg/ml. Particulate matter in the extraction is not removed. The punicalagin test samples are diluted in MEM without phenol red (estrogenic) and 0.1% FBS to lower background signaling to ten times the final concentrations. Final DMSO concentrations are kept below 0.2% and are kept constant during treatments. DMSO solvent control is used in the untreated group.
MG63 cells (ATCC # […]), a human-derived osteosarcoma cell line, are plated at 200,000 cells per well in a 12 well plate with phenol red free MEM at 10% FBS. The next day the media is changed to phenol red free MEM at 0.1% FBS. The cells are incubated for four hours and then treated with punicalagin test samples at concentrations of 1, 10, and 100 μg/ml.
After four hours of treatment, IL-1b (Calbiochem (catalog # 407615), stock solution at 10 μg/ml, cat # 407615) are added to a final concentration of 3 ng/mL. […]
After 16 hours the cells are lysed and the RNA is extracted from the cells with the RNasy purification kit (Qiagen). RNA is reverse transcribed to cDNA and quantified by qPCR using 2-step qRT-PCR reagents (Invitrogen), and 4 μL of purified RNA. […]
RANK-L and GAPDH gene expression Ct data are obtained. RNA is quantified with adjustments for GAPDH expression. […]

[4] = test system: MMP9 (type IV collagenase); test: MMP9 (type IV collagenase) protein expression, keratinocyte/fibroblast co-culture stimulated with IL-1B; assay type: cell-based; settings: IL1B 10 ng/ml alone (stimulus); untreated = 1.0
Method: Keratinocytes and fibroblasts were co-cultured in DMEM containing 0.5% BSA. Co-cultures were exposed to various concentrations of punicalagins (ranging from 0.1%-10%) extracted from pomegranates. Specifically, the ability of the pomegranate extracts to inhibit type IV collagenase protein (matrix metalloproteinase-9/MMP9) expression at concentrations of 1.0 μg/ml, 10 μg/ml, and 100 μg/ml were tested. Following exposure to the pomegranate extracts, the co-culture cells were stimulated with 10 ng/ml of IL-1B for 18 hours. Following stimulation with IL-1B for 18 hours, and MMP9 concentration was determined in the media as shown below in Table 8.

Row | Molecule | Activation of the BMP-2 promoter (in words) [1] | inhibition at 1 µg/mL [2] [%] | RANK-L Expression (fold increase) [3] [fold increase] | MMP9 expression (fold of untreated) [4]
1 | CC(C)Oc1ccc2c(=O)c(-c3ccccc3)coc2c1 [I, 7-isopropoxy isoflavone] | most potent activators | 0.8 ± 0.3 | – | –
2 | IL1B: IL-1b (Calbiochem), stimulus of RANK-L and MMP9 expression | – | – | 3.3 ± 0 | 1.65
3 | O=c1c(O)c(-c2ccc(O)c(O)c2)oc2cc(O)cc(O)c12 [Q, Quercetin] | most potent activators | – | – | –
